Measured values from patent US20020137929A1, “1 - (3-heterocyclylphenyl) isothiourea, -isourea, -guanidine and -amidine herbicidal agents” (Intellectual Property Department, BASF Aktiengesellschaft, priority 1998, published 2002).

Columns and labels:
[1] = test system: SAGPY (Arrowhead (Pygmaea)); assay: Postemergence weed control under flooded paddy conditions; format: in vivo, Sagittaria pygmaea; conditions: postemergence weeds, 3-4 weeks after treatment
How it was run: (§1)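 With weeds 3 to 5 cm tall and rice at the 1.5 to 2.5 leaf stage, containers were flooded and water held 1.5 to 3 cm above soil. Compounds in 50/50 v/v aqueous/acetone went into the flood water at about 0.0313 to 0.500 kg/ha a.i. Effects were visually rated 0–9 against controls after three to four weeks in the greenhouse.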

CYPIR (Rice Flatsedge) [2] = assay: as above; format: in vivo, Cyperus iria; conditions: postemergence weeds, 3-4 weeks after treatment
How it was run: as §1

GALAP (Galium) = assay: Postemergence herbicidal evaluation; format: in vivo, Galium aparine; conditions: postemergence
How it was run: (§2)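 Two-week seedlings sprayed postemergence at 40 psi; formulation: 1:1 acetone/water, 0.5% TWEEN 20; application ≈0.0156–0.500 kg/ha. Greenhouse grow-out, then 0–9 visual scoring at 4–5 weeks.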

[3] = test system: TRZAWR (Wheat, Winter, cv Riband); assay: Preemergence herbicidal evaluation; format: in vivo, Triticum aestivum; conditions: rated 4-5 weeks after treatment
How it was run: (§3)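 Preemergence soil application of compound, sprayed in aqueous acetone at rates equivalent to about 0.0156 to 0.500 kg per hectare onto freshly sown cups. Plant response was judged by eye on a 0-9 scale four to five weeks later.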

SETVI (Foxtail, Green) = assay: Postemergence herbicidal evaluation; format: in vivo, Setaria viridis; conditions: postemergence
How it was run: as §2

ECHCG (Barnyardgrass) = assay: Postemergence herbicidal evaluation; format: in vivo, Echinochloa crus-galli; conditions: postemergence
How it was run: as §2

MOOVA (Monochoria) = assay: Preemergence weed control under flooded paddy conditions; format: in vivo, Monochoria vaginalis; conditions: rated 3-4 weeks after treatment
How it was run: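 First, seeds or propagules go into the top 0.5 cm of silt loam; next, water is held 1.5 to 3 cm over the soil; then compound (50/50 acetone/water) is pipetted into it at about 0.0313 to 0.500 kg/ha; finally plants are rated visually 0-9 after three to four weeks.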

[4] = test system: IPOHE (Morningglory, Ivyleaf); assay: Preemergence herbicidal evaluation; format: in vivo, Ipomoea hederacea; conditions: rated 4-5 weeks after treatment
How it was run: as §3

ORYSAT (Rice, Tebonnet) = assay: Postemergence herbicidal evaluation; format: in vivo, Oryza sativa, (L.) Tebonnet; conditions: postemergence
How it was run: as §2

ABUTH (Velvetleaf) = assay: Postemergence herbicidal evaluation; format: in vivo, Abutilon theophrasti; conditions: postemergence
How it was run: as §2

CYPIR (Rice Flatsedge) [5] = assay: Preemergence weed control under flooded paddy conditions; format: in vivo, Cyperus iria; conditions: rated 3-4 weeks after treatment
How it was run: (§4)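 Flooded-pot preemergence screen with silt loam and seeds in the upper 0.5 cm. Dose about 0.0313 to 0.500 kg/ha, delivered into flood water; visual 0-9 score after 3 to 4 weeks.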

ZEAMX (Corn, Field) = assay: Preemergence herbicidal evaluation; format: in vivo, Zea mays; conditions: rated 4-5 weeks after treatment
How it was run: as §3

[6] = test system: ECHORC (Watergrass (Calif.)); assay: Preemergence weed control under flooded paddy conditions; format: in vivo, Echinochloa oryzoides; conditions: rated 3-4 weeks after treatment
How it was run: as §4

CYPSE (Flatsedge) = assay: Postemergence weed control under flooded paddy conditions; format: in vivo, Cyperus serotinus; conditions: postemergence weeds, 3-4 weeks after treatment
How it was run: as §1

CCC1SC(=Nc2cc(-n3c(=O)cc(C(F)(F)F)n(C)c3=O)c(F)cc2Cl)N(C)C1=O (centres unmarked) [Compound 10]
Herbicidal rating SAGPY ([1]; rate 0.0313 kg/ha): 0.0 | Herbicidal rating SAGPY ([1]; rate 0.0625 kg/ha): 0.0 | Herbicidal rating SAGPY ([1]; rate 0.1250 kg/ha): 0.0 | Herbicidal rating SAGPY ([1]; rate 0.2500 kg/ha): 0.0 | Herbicidal rating CYPIR (CYPIR (Rice Flatsedge) [2]; rate 0.0313 kg/ha): 0.0 | Herbicidal rating CYPIR (CYPIR (Rice Flatsedge) [2]; rate 0.0625 kg/ha): 0.0 | Herbicidal rating CYPIR (CYPIR (Rice Flatsedge) [2]; rate 0.1250 kg/ha): 2.0 | Herbicidal rating CYPIR (CYPIR (Rice Flatsedge) [2]; rate 0.2500 kg/ha): 4.0 | GALAP herbicidal rating (GALAP (Galium); rate 0.0156 kg/ha): 1.0 | GALAP herbicidal rating (GALAP (Galium); rate 0.0313 kg/ha): 2.0 | GALAP herbicidal rating (GALAP (Galium); rate 0.0625 kg/ha): 3.5 | GALAP herbicidal rating (GALAP (Galium); rate 0.1250 kg/ha): 4.5 | TRZAWR preemergence herbicidal rating ([3]; rate 0.0156 kg/ha): 1.0 | TRZAWR preemergence herbicidal rating ([3]; rate 0.0313 kg/ha): 3.5 | TRZAWR preemergence herbicidal rating ([3]; rate 0.0625 kg/ha): 5.5 | TRZAWR preemergence herbicidal rating ([3]; rate 0.1250 kg/ha): 6.5 | TRZAWR preemergence herbicidal rating ([3]; rate 0.2500 kg/ha): 7.5 | SETVI herbicidal rating (SETVI (Foxtail, Green); rate 0.0156 kg/ha): 0.0 | SETVI herbicidal rating (SETVI (Foxtail, Green); rate 0.0313 kg/ha): 0.0 | SETVI herbicidal rating (SETVI (Foxtail, Green); rate 0.0625 kg/ha): 1.0 | SETVI herbicidal rating (SETVI (Foxtail, Green); rate 0.1250 kg/ha): 3.0 | ECHCG herbicidal rating (ECHCG (Barnyardgrass); rate 0.0156 kg/ha): 0.0 | ECHCG herbicidal rating (ECHCG (Barnyardgrass); rate 0.0313 kg/ha): 0.0 | ECHCG herbicidal rating (ECHCG (Barnyardgrass); rate 0.0625 kg/ha): 0.0 | ECHCG herbicidal rating (ECHCG (Barnyardgrass); rate 0.1250 kg/ha): 1.0 | Herbicidal rating MOOVA (MOOVA (Monochoria); 0.0313 kg/ha): 9.0 | Herbicidal rating MOOVA (MOOVA (Monochoria); 0.0625 kg/ha): 9.0 | Herbicidal rating MOOVA (MOOVA (Monochoria); 0.1250 kg/ha): 9.0 | Herbicidal rating MOOVA (MOOVA (Monochoria); 0.2500 kg/ha): 9.0 | IPOHE preemergence herbicidal rating ([4]; rate 0.0156 kg/ha): 2.0 | IPOHE preemergence herbicidal rating ([4]; rate 0.0313 kg/ha): 3.0 | IPOHE preemergence herbicidal rating ([4]; rate 0.0625 kg/ha): 5.3 | IPOHE preemergence herbicidal rating ([4]; rate 0.1250 kg/ha): 8.3 | IPOHE preemergence herbicidal rating ([4]; rate 0.2500 kg/ha): 9.0 | ORYSAT herbicidal rating (ORYSAT (Rice, Tebonnet); rate 0.0156 kg/ha): 1.8 | ORYSAT herbicidal rating (ORYSAT (Rice, Tebonnet); rate 0.0313 kg/ha): 2.5 | ORYSAT herbicidal rating (ORYSAT (Rice, Tebonnet); rate 0.0625 kg/ha): 2.5 | ORYSAT herbicidal rating (ORYSAT (Rice, Tebonnet); rate 0.1250 kg/ha): 3.0 | ABUTH herbicidal rating (ABUTH (Velvetleaf); rate 0.0156 kg/ha): 9.0 | ABUTH herbicidal rating (ABUTH (Velvetleaf); rate 0.0313 kg/ha): 6.5 | ABUTH herbicidal rating (ABUTH (Velvetleaf); rate 0.0625 kg/ha): 7.0 | ABUTH herbicidal rating (ABUTH (Velvetleaf); rate 0.1250 kg/ha): 9.0 | Herbicidal rating CYPIR (CYPIR (Rice Flatsedge) [5]; 0.0313 kg/ha): 0.0 | Herbicidal rating CYPIR (CYPIR (Rice Flatsedge) [5]; 0.0625 kg/ha): 0.0 | Herbicidal rating CYPIR (CYPIR (Rice Flatsedge) [5]; 0.1250 kg/ha): 2.0 | Herbicidal rating CYPIR (CYPIR (Rice Flatsedge) [5]; 0.2500 kg/ha): 4.0 | ZEAMX preemergence herbicidal rating (ZEAMX (Corn, Field); rate 0.0156 kg/ha): 4.7 | ZEAMX preemergence herbicidal rating (ZEAMX (Corn, Field); rate 0.0313 kg/ha): 6.7 | ZEAMX preemergence herbicidal rating (ZEAMX (Corn, Field); rate 0.0625 kg/ha): 7.0 | ZEAMX preemergence herbicidal rating (ZEAMX (Corn, Field); rate 0.1250 kg/ha): 7.3 | ZEAMX preemergence herbicidal rating (ZEAMX (Corn, Field); rate 0.2500 kg/ha): 8.0 | Herbicidal rating ECHORC ([6]; 0.0313 kg/ha): 0.0 | Herbicidal rating ECHORC ([6]; 0.0625 kg/ha): 1.0 | Herbicidal rating ECHORC ([6]; 0.1250 kg/ha): 2.0 | Herbicidal rating ECHORC ([6]; 0.2500 kg/ha): 2.0 | Herbicidal rating CYPSE (CYPSE (Flatsedge); rate 0.0313 kg/ha): 0.0 | Herbicidal rating CYPSE (CYPSE (Flatsedge); rate 0.0625 kg/ha): 0.0 | Herbicidal rating CYPSE (CYPSE (Flatsedge); rate 0.1250 kg/ha): 0.0 | Herbicidal rating CYPSE (CYPSE (Flatsedge); rate 0.2500 kg/ha): 0.0
